Test results: patent US6348487B1, “2-phenyl benzimidazole derivatives as MCP-1 antagonists” (Millennium Pharmaceuticals, Inc., priority 1996, dated 2002)
pIC50: −log10 of the molar value.

How the values were obtained:
[1] = target: T1, MCP-1 receptor (Homo sapiens, UniProt P41597); assay: MCP-1 Receptor Binding Assay (I125-labeled MCP-1, THP-1 cell membranes); conditions: THP-1 membranes, 0.2 nM I125-labeled MCP-1
T1 construct: host or cells: THP-1 (human monocytic cell line), membrane preparation
T1 sequence (P41597 1-360 isoform P41597-2): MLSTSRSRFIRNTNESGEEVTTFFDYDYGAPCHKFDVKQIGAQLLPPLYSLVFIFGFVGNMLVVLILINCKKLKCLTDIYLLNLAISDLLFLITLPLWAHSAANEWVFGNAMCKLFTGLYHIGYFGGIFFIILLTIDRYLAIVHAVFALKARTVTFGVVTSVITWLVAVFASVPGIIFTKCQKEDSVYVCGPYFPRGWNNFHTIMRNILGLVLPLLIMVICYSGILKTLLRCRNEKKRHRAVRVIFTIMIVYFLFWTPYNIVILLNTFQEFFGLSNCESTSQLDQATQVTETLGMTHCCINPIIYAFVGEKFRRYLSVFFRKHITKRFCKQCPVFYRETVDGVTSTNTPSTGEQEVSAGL
Method: Membranes used in the MCP-1 binding assay were prepared from THP-1 cells (human monocytic cell line source—American Type Culture Collection, Tumor Immunology Bank #202, Rockville, Md., accession no. ATCC TIB 202). Cells were harvested by centrifugation and washed twice in ice-cold PBS (phosphate-buffered saline) and the cell pellet was frozen at −80° C. in some cases. Cells were resuspended in ice-cold lysis buffer 5 mM HEPES (2-(4N-[2-hydroxyethyl]piperazin-1-yl)-N′-(2-ethanesulfonic acid), pH 7.5, 2 mM EDTA (ethylenediaminetetraacetic acid), 5 μg/mL each leupeptin, aprotinin, chymostatin (protease inhibitors), and 100 μg/mL PMSF (phenylmethane sulfonyl fluoride—also a protease inhibitor)) at a concentration of 5×10^7 cells/mL. The cell suspension was dounced 10-15 times using the B pestle (small pestle of tissue grinder—clearance is 0.07 mm; source—Fisher Scientific) on ice. Nuclei and debris were removed by centrifugation at 500-1000×g for 10 minutes at 4° C. The supernatant was transferred to a fresh tube and centrifuged at 25,000×g for 30 minutes at 4° C. The supernatant was aspirated and the pellet was resuspended in freezing buffer (10 mM HEPES, pH 7.5, 300 mM sucrose, 1 μg/mL each leupeptin, aprotinin, chymostatin, and 10 μg/mL PMSF) using a minihomogenizer until all clumps were resolved. Membranes were aliquoted and frozen at minus 70-85° C. until needed. Typical binding assays used 10-20 μg/well of total membrane protein as determined with a standard protein assay (e.g. Bradford protein assay, BioRad, Richmond, Calif.).
For binding, 10-20 μg of total membrane protein were included in the binding reaction along with 0.2 nM I^125-labeled MCP-1 (Amersham, Arlington Heights, Ill.) with or without unlabeled competitor MCP-1 (Peprotech, Rocky Hill, N.J.) (at 500 nM). Binding reactions were performed in a final volume of 100 μl in a binding buffer containing 10 mM HEPES, pH 7.2, 1 mM CaCl2, 5 mM MgCl2, 0.5% BSA (bovine serum albumin). After 30-60 minutes at room temperature, the binding reactions were filtered through GF/C filters (Whatman glass fiber filters, Type C) or GF/B unifilter plates (Packard) which had been pre-soaked with 0.3% polyethyleneimine and washed twice with binding buffer containing 0.5 M NaCl. Filters were dried and counted in a Beta-Plate scintillation counter using standard scintillation fluid. Final concentration of compound in the binding assay ranged from 0.05-100 μM. Compounds were dissolved in DMSO (dimethyl sulfoxide). Final concentrations of DMSO in the binding were kept constant at 0.5%.
IC50s were calculated using a non-linear 3-parameter logistic curve fit. IC50 means the concentration at which 50% inhibition is achieved. Negative controls contained the same amount of DMSO vehicle as used in wells containing compound. Positive control contained 250-500 nM cold competitor MCP-1 in DMSO vehicle. Non-specific binding (the level of bound ^125I-labeled MCP-1 in the presence of […] unlabeled MCP-1) was subtracted from all data prior to analysis.

Row | melting point [°C] | pIC50 [1] | Structure (SMILES)
1 | 273 | – | COc1ccc2nc(-c3ccc(N(C)CCN4CCCCC4)cc3)[nH]c2c1.Cl.Cl
2 | – | 4.96 | CN(CCN1CCCCC1)c1ccc(-c2nc3ccccc3[nH]2)cc1
3 | – | 4.81 | CN(CCN1CCCCC1)c1ccc(-c2nc3ccc(C(F)(F)F)cc3[nH]2)cc1
4 | – | 5.51 | CN(CCN1CCCCC1)c1ccc(-c2nc3ccc(C(C)(C)C)cc3[nH]2)cc1
5 | – | 5.07 | CN(CCN1CCCCC1)c1ccc(-c2nc3ccc(F)cc3[nH]2)cc1
6 | – | 4.92 | CN(CCN1CCCCC1)c1ccc(-c2nc3cc4ccccc4cc3[nH]2)cc1
7 | – | 4.68 | CN(CCN1CCCCC1)c1ccc(-c2nc3cc4c(cc3[nH]2)Cc2ccccc2-4)cc1
8 | – | 4.94 | CCCCc1ccc2nc(-c3ccc(N(C)CCN4CCCCC4)cc3)[nH]c2c1
9 | – | 4.82 | CN(CCN1CCCCC1)c1ccc(-c2nc3ccc(-c4ccccc4)cc3[nH]2)cc1
10 | – | 5.29 | CN(CCN1CCCCC1)c1ccc(-c2nc3cc(Sc4ccc(Cl)c(Cl)c4)ccc3[nH]2)cc1
11 | – | 4.95 | CN(CCN1CCCCC1)c1ccc(-c2nc3ccc(C(=O)c4ccccc4)cc3[nH]2)cc1
12 | – | 4.81 | CN(CCN1CCCCC1)c1ccc(-c2nc3ccc(OCc4ccccc4)cc3[nH]2)cc1
13 | – | 4.92 | c1ccc(-c2ccc3nc(-c4ccc(NCCN5CCCCC5)cc4)[nH]c3c2)cc1
14 | – | 5.19 | CN(CCN1CCCCC1)c1ccc(-c2nc3ccc(Oc4ccc(Cl)c(Cl)c4)cc3[nH]2)cc1
15 | – | 5.49 | CN(CCN1CCCCC1)Cc1ccc(-c2nc3cc(Cl)c(Cl)cc3[nH]2)cc1
16 | – | 5.17 | CN(CCN1CCCCC1)c1ccc(-c2nc3ccc(NCCCCCc4ccccc4)cc3[nH]2)cc1
17 | – | 5.00 | CN(CCN1CCCCC1)c1ccc(-c2cc3cc(Cl)ccc3[nH]2)cc1
18 | – | 5.37 | CN(CCN1CCCCC1)c1ccc(-c2nc3ccc(Cc4ccccc4)cc3[nH]2)cc1
19 | – | 5.17 | CCN(CC)CCN(C)c1ccc(-c2nc3cc(Cl)c(Cl)cc3[nH]2)cc1
20 | 196 | – | CN(CCN1CCCCC1)c1ccc(-c2nc3ccc(Cl)cc3[nH]2)cc1 [Example 4, [4-[6-Chloro-1H-benzoimidazol-2-yl)-phenyl]-methyl-(2-piperidin-1-yl-ethyl)-amine]
21 | 167 to 168 | – | CN(CCN1CCCCC1)c1ccc(-c2nc3cc(Cl)c(F)cc3[nH]2)cc1 [Example 5, [4-(5-Chloro-6-fluoro-1H-benzoimidazol-2-yl)-phenyl]-methyl-(2-piperidin-1-yl-ethyl)-amine]
22 | 165 | – | Cc1ccc2nc(-c3ccc(N(C)CCN4CCCCC4)cc3)[nH]c2c1 [Example 6, Methyl-[4-(6-methyl-1H-benzoimidazol-2-yl)-phenyl]-(2-piperidin-1-yl-ethyl)-amine]
23 | 194 to 196 | – | Cc1cc2nc(-c3ccc(N(C)CCN4CCCCC4)cc3)[nH]c2cc1C [Example 7, [4-(5,6-Dimethyl-1H-benzoimidazol-2-yl)-phenyl]-methyl-(2-piperidin-1-yl-ethyl)-amine]
24 | 164 | – | CN(CCN1CCCCC1)c1ccc(-c2nc3ccc(Cl)c(Cl)c3[nH]2)cc1 [Example 8, [4-(6,7-Dichloro-1H-benzoimidazol-2-yl)-phenyl]-methyl-(2-piperidin-1-yl-ethyl)-amine]
25 | 192 | – | CN(CCN1CCCCC1)c1ccc(C2=Nc3ccc(Cl)cc3C2)cc1 [Example 10, [4-(5-Chloro-3H-indol-2-yl)-phenyl]-methyl-(2-piperidin-1-yl-ethyl)-amine]
26 | – | 4.87 | CN(CCN1CCCCC1)c1ccc(-c2nc3cc(Cl)c(Cl)cc3[nH]2)cc1 [drawing 9]
27 | – | 5.23 | CN(CCN1CCCCC1)c1ccc(-c2nc3ccc(Cl)cc3[nH]2)cc1 [drawing 11]
28 | – | 5.02 | CN(CCN1CCCCC1)c1ccc(-c2nc3cc(Cl)c(F)cc3[nH]2)cc1 [drawing 12]
29 | – | 5.06 | Cc1ccc2nc(-c3ccc(N(C)CCN4CCCCC4)cc3)[nH]c2c1 [drawing 13]
30 | – | 5.20 | Cc1cc2nc(-c3ccc(N(C)CCN4CCCCC4)cc3)[nH]c2cc1C [drawing 14]

Row | Structure (SMILES) | melting point [°C] | pIC50 [1]
31 | CCN(CC)CCN(CCN(CC)CC)c1ccc(-c2nc3cc(Cl)c(Cl)cc3[nH]2)cc1 [drawing 8] | – | 4.95
